# In PubChem BioAssay (NCI):
#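 Tested at 5 concentrations; 48 h exposure; 96-well plates; endpoints linearly interpolated, else capped at highest concentration. The concentration for 50% growth inhibition is given as GI50. Definition used: TGI = concentration required for complete inhibition of growth.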
# Assays:
# Experiment in all cases: inhibition of tumour cell growth, NCI panel, 48 h
# [1] = test system: 786-0 renal
# [2] = test system: A498 renal
# [3] = test system: A549 NSCLC
# [4] = test system: ACHN renal
# [5] = test system: CAKI-1 renal
# [6] = test system: CCRF-CEM leukemia
# [7] = test system: COLO 205 colon
# [8] = test system: DU-145 prostate
# [9] = test system: EKVX NSCLC
# [10] = test system: HCC-2998 colon
# [11] = test system: HCT-15 colon
# [12] = test system: HL-60(TB) leukemia
# [13] = test system: HOP-62 NSCLC
# [14] = test system: HOP-92 NSCLC
# [15] = test system: HS 578T breast
# [16] = test system: HT29 colon
# [17] = test system: IGROV1 ovarian
# [18] = test system: K-562 leukemia
# [19] = test system: KM12 colon
# [20] = test system: LOX IMVI melanoma
# [21] = test system: MALME-3M melanoma
# [22] = test system: MCF7 breast
# [23] = test system: MDA-MB-231 breast
# [24] = test system: MDA-MB-435
# [25] = test system: MOLT-4 leukemia
# [26] = test system: NCI-H226 lung
# [27] = test system: NCI-H23 lung
# [28] = test system: NCI-H460 lung
# [29] = test system: NCI-H522 lung
# [30] = test system: NCI/ADR-RES ovarian
# [31] = test system: OVCAR-3 ovarian
# [32] = test system: OVCAR-4 ovarian
# [33] = test system: OVCAR-5 ovarian
# [34] = test system: OVCAR-8 ovarian
# [35] = test system: PC-3 prostate
# [36] = test system: RPMI-8226 leukemia
# [37] = test system: RXF 393 renal
# [38] = test system: SF-268 CNS
# [39] = test system: SF-295 CNS
# [40] = test system: SF-539 CNS
# [41] = test system: SK-MEL-2 melanoma
# [42] = test system: SK-MEL-28 melanoma
# [43] = test system: SK-MEL-5 melanoma
# [44] = test system: SK-OV-3 ovarian
# [45] = test system: SN12C renal
# [46] = test system: SNB-19 CNS
# [47] = test system: SNB-75 CNS
# [48] = test system: SR leukemia
# [49] = test system: SW-620 colon
# [50] = test system: T-47D breast
# [51] = test system: TK-10 renal
# [52] = test system: U251 CNS
# [53] = test system: UACC-257 melanoma
# [54] = test system: UACC-62 melanoma
# [55] = test system: UO-31 renal
structure (smiles),measurement,setting,value
CCN(CC)CCOc1ccc(/C(=C(\C)Cc2ccc(OC)cc2)c2ccc(O)cc2)cc1,GI50,[1],1590 nM
same,TGI,[1],3000 nM
same,GI50,[2],1380 nM
same,TGI,[2],4810 nM
same,GI50,[3],1830 nM
same,TGI,[3],3560 nM
same,GI50,[4],1660 nM
same,TGI,[4],3100 nM
same,GI50,[5],1650 nM
same,TGI,[5],3210 nM
same,GI50,[6],2190 nM
same,TGI,[6],5100 nM
same,GI50,[7],1710 nM
same,TGI,[7],3420 nM
same,GI50,[8],2140 nM
same,TGI,[8],5000 nM
same,GI50,[9],2080 nM
same,TGI,[9],6190 nM
same,GI50,[10],1910 nM
same,TGI,[10],3460 nM
same,GI50,[11],1490 nM
same,TGI,[11],3000 nM
same,GI50,[12],1410 nM
same,TGI,[12],3140 nM
same,GI50,[13],1890 nM
same,TGI,[13],3810 nM
same,GI50,[14],588 nM
same,TGI,[14],2610 nM
same,GI50,[15],1690 nM
same,TGI,[15],4220 nM
same,GI50,[16],1430 nM
same,TGI,[16],3670 nM
same,GI50,[17],2980 nM
same,TGI,[17],10300 nM
same,GI50,[18],1370 nM
same,TGI,[18],3990 nM
same,GI50,[19],1800 nM
same,TGI,[19],3760 nM
same,GI50,[20],1740 nM
same,TGI,[20],3170 nM
same,GI50,[21],1730 nM
same,TGI,[21],3280 nM
same,GI50,[22],145 nM
same,TGI,[22],2300 nM
same,GI50,[23],1710 nM
same,TGI,[23],3260 nM
same,GI50,[24],1680 nM
same,TGI,[24],3150 nM
same,GI50,[25],1500 nM
same,TGI,[25],3520 nM
same,GI50,[26],1860 nM
same,TGI,[26],4260 nM
same,GI50,[27],1980 nM
same,TGI,[27],5080 nM
same,GI50,[28],1860 nM
same,TGI,[28],3680 nM
same,GI50,[29],1890 nM
same,TGI,[29],3820 nM
same,GI50,[30],2430 nM
same,TGI,[30],7740 nM
same,GI50,[31],1680 nM
same,TGI,[31],3210 nM
same,GI50,[32],2950 nM
same,TGI,[32],9910 nM
same,GI50,[33],2360 nM
same,TGI,[33],6790 nM
same,GI50,[34],2120 nM
same,TGI,[34],5140 nM
same,GI50,[35],1540 nM
same,TGI,[35],3260 nM
same,GI50,[36],1790 nM
same,TGI,[36],3880 nM
same,GI50,[37],1510 nM
same,TGI,[37],2910 nM
same,GI50,[38],1860 nM
same,TGI,[38],4330 nM
same,GI50,[39],1690 nM
same,TGI,[39],3300 nM
same,GI50,[40],1750 nM
same,TGI,[40],3240 nM
same,GI50,[41],1940 nM
same,TGI,[41],3710 nM
same,GI50,[42],1790 nM
same,TGI,[42],3330 nM
same,GI50,[43],1630 nM
same,TGI,[43],3000 nM
same,GI50,[44],2480 nM
same,TGI,[44],7380 nM
same,GI50,[45],1530 nM
same,TGI,[45],3030 nM
same,GI50,[46],2080 nM
same,TGI,[46],4770 nM
same,GI50,[47],1580 nM
same,TGI,[47],3380 nM
same,GI50,[48],1390 nM
same,TGI,[48],3620 nM
same,GI50,[49],1700 nM
same,TGI,[49],3370 nM
same,GI50,[50],1140 nM
same,TGI,[50],3520 nM
same,GI50,[51],1820 nM
same,TGI,[51],3680 nM
same,GI50,[52],1630 nM
same,TGI,[52],3090 nM
same,GI50,[53],1890 nM
same,TGI,[53],3810 nM
same,GI50,[54],1810 nM
same,TGI,[54],3320 nM
same,GI50,[55],1450 nM
same,TGI,[55],2800 nM
